In EPA's CvTdb concentration-time database:

Assays:
Rat [1] = assay: concentration in brain after dosing; details: 1 h; dosed: Fluorotelomer alcohol 8+2; 80 mg/kg; oral; Female; Harlan Sprague Dawley
Rat [2] = assay: concentration in plasma after dosing; details: dosed: Fluorotelomer alcohol 8+2, 40 mg/kg, iv, Female, Harlan Sprague-Dawley
Rat [3] = assay: concentration in brain after dosing; details: 1 h; dosed: Fluorotelomer alcohol 8+2; 80 mg/kg; oral; Female; Harlan Sprague Dawley; remark: listed apart in the source
Rat [4] = assay: concentration in kidney after dosing; details: 0.5 h; dosed: Fluorotelomer alcohol 8+2; 80 mg/kg; oral; Female; Harlan Sprague Dawley
Rat [5] = assay: concentration in plasma after dosing; details: dosed: Fluorotelomer alcohol 8+2, 24 mg/kg, oral, Male, Harlan Sprague Dawley
Rat [6] = assay: concentration in liver after dosing; details: 1 h; dosed: Fluorotelomer alcohol 8+2; 80 mg/kg; oral; Female; Harlan Sprague Dawley
Rat [7] = assay: concentration in plasma after dosing; details: 3 h; dosed: Primidone; 80 mg/kg; oral; Male; F344
Rat [8] = assay: concentration in plasma after dosing; details: 1.5 h; dosed: Primidone; 30 mg/kg; oral; Male; F344
Rat [9] = assay: concentration in plasma after dosing; details: 18 h; dosed: Primidone; 30 mg/kg; oral; Female; F344
Rat [10] = assay: concentration in plasma after dosing; details: 9 h; dosed: Primidone; 30 mg/kg; oral; Male; F344
Rat [11] = assay: concentration in plasma after dosing; details: 18 h; dosed: Primidone; 30 mg/kg; oral; Male; F344
Rat [12] = assay: concentration in plasma after dosing; details: dosed: Perfluorodecanoic acid, 2 mg/kg, iv, Male, F344
Rat [13] = assay: concentration in liver after dosing; details: 1848 h; dosed: Perfluorodecanoic acid; 10 mg/kg; oral; Male; Harlan Sprague Dawley
Rat [14] = assay: concentration in liver after dosing; details: 3360 h; dosed: Perfluorodecanoic acid; 10 mg/kg; oral; Female; Harlan Sprague Dawley
Rat [15] = assay: concentration in heart after dosing; details: 40 min; dosed: Bis 2-Chloroethoxy Methane; 20 mg/kg; iv; Male; F344
Rat [16] = assay: concentration in plasma after dosing; details: 1 h; dosed: Bis 2-Chloroethoxy Methane; 20 mg/kg; iv; Female; F344
Rat [17] = assay: concentration in plasma after dosing; details: 10 min; dosed: Bis 2-Chloroethoxy Methane; 20 mg/kg; iv; Male; F344
Rat [18] = assay: concentration in heart after dosing; details: 2 h; dosed: Bis 2-Chloroethoxy Methane; 20 mg/kg; iv; Male; F344
Rat [19] = assay: concentration in heart after dosing; details: 3 h; dosed: Bis 2-Chloroethoxy Methane; 20 mg/kg; iv; Male; F344
Rat [20] = assay: concentration in liver after dosing; details: 10 min; dosed: Bis 2-Chloroethoxy Methane; 20 mg/kg; iv; Male; F344
Rat [21] = assay: concentration in plasma after dosing; details: 1 h; dosed: Bis 2-Chloroethoxy Methane; 40 mg/kg; iv; Male; Harlan Sprague Dawley
Rat [22] = assay: concentration in plasma after dosing; details: 1 h; dosed: Bis 2-Chloroethoxy Methane; 20 mg/kg; iv; Female; F344; remark: listed apart in the source
Rat [23] = assay: concentration in thymus after dosing; details: 40 min; dosed: Bis 2-Chloroethoxy Methane; 20 mg/kg; iv; Female; F344
Rat [24] = assay: concentration in plasma after dosing; details: 5 h; dosed: Bis 2-Chloroethoxy Methane; 20 mg/kg; iv; Female; F344
Rat [25] = assay: concentration in plasma after dosing; details: 20 min; dosed: dichloroacetic acid; 10 mg/kg; iv; Male; F344
Rat [26] = assay: concentration in plasma after dosing; details: dosed: Wyeth-14643, 5.0 mg/kg, oral, Male, Sprague-Dawley
Rat [27] = assay: concentration in plasma after dosing; details: 5 min; dosed: Wyeth-14643; 2.0 mg/kg; iv; Male; Sprague-Dawley
Rat [28] = assay: concentration in plasma after dosing; details: 1 h; dosed: Wyeth-14643; 5.0 mg/kg; oral; Male; Sprague-Dawley
Rat [29] = assay: concentration in plasma after dosing; details: 2 h; dosed: Wyeth-14643; 2.0 mg/kg; iv; Male; Sprague-Dawley
Rat [30] = assay: concentration in plasma after dosing; details: 4 h; dosed: Wyeth-14643; 5.0 mg/kg; oral; Male; Sprague-Dawley
Rat [31] = assay: concentration in liver after dosing; details: 8 h; dosed: Thiodiglycolic Acid; 20 mg/kg; iv; Female; Harlan Sprague Dawley
Rat [32] = assay: concentration in liver after dosing; details: 6.667 h; dosed: Thiodiglycolic Acid; 20 mg/kg; iv; Female; Harlan Sprague Dawley
Rat [33] = assay: concentration in heart after dosing; details: 40 min; dosed: Thiodiglycolic Acid; 20 mg/kg; iv; Male; Harlan Sprague Dawley
Rat [34] = assay: concentration in liver after dosing; details: 40 min; dosed: Thiodiglycolic Acid; 20 mg/kg; iv; Male; Harlan Sprague Dawley
Rat [35] = assay: concentration in heart after dosing; details: 3 h; dosed: Thiodiglycolic Acid; 20 mg/kg; iv; Female; Harlan Sprague Dawley
Rat [36] = assay: concentration in thymus after dosing; details: 40 min; dosed: Thiodiglycolic Acid; 20 mg/kg; iv; Male; Harlan Sprague Dawley
Rat [37] = assay: concentration in heart after dosing; details: 40 min; dosed: Thiodiglycolic Acid; 20 mg/kg; iv; Male; Harlan Sprague Dawley; remark: listed apart in the source
Rat [38] = assay: concentration in plasma after dosing; details: 4 h; dosed: Thiodiglycolic Acid; 20 mg/kg; iv; Female; Harlan Sprague Dawley
Rat [39] = assay: concentration in liver after dosing; details: 1 h; dosed: Thiodiglycolic Acid; 20 mg/kg; iv; Male; Harlan Sprague Dawley
Rat [40] = assay: concentration in plasma after dosing; details: 10 h; dosed: Di-n-butyl phthalate; 50 mg/kg; oral; Male; Sprague-Dawley
Rat [41] = assay: concentration in plasma after dosing; details: 40 min; dosed: Di-n-butyl phthalate; 20 mg/kg; iv; Male; Sprague-Dawley

OCCC(F)(F)C(F)(F)C(F)(F)C(F)(F)C(F)(F)C(F)(F)C(F)(F)C(F)(F)F [Fluorotelomer alcohol 8+2]
concentration in brain (Rat [1]): 3370 ng/g
concentration in plasma (Rat [2]; 1 h): 3650 ng/mL
concentration in plasma (Rat [2]; 24 h): 26.8 ng/mL
concentration in brain (Rat [3]): 4990 ng/g
concentration in kidney (Rat [4]): 4140 ng/g
concentration in plasma (Rat [5]; 5 min): 8.46 ng/mL
concentration in plasma (Rat [5]; 9 h): 44.8 ng/mL
concentration in liver (Rat [6]): 7790 ng/g

CCC1(c2ccccc2)C(=O)NC(=O)NC1=O [Phenobarbital]
concentration in plasma (Rat [7]): 5240 ng/mL
concentration in plasma (Rat [8]): 1940 ng/mL
concentration in plasma (Rat [9]): 1060 ng/mL
concentration in plasma (Rat [10]): 2930 ng/mL
concentration in plasma (Rat [11]): 1540 ng/mL

O=C(O)C(F)(F)C(F)(F)C(F)(F)C(F)(F)C(F)(F)C(F)(F)C(F)(F)C(F)(F)C(F)(F)F [Perfluorodecanoic acid]
concentration in plasma (Rat [12]; 12 h): 6270 ng/mL
concentration in plasma (Rat [12]; 1200 h): 874 ng/mL
concentration in liver (Rat [13]): 27600 ng/g
concentration in liver (Rat [14]): 7670 ng/g

ClCCOCOCCCl [Bis 2-Chloroethoxy Methane]
concentration in heart (Rat [15]): 7270 ng/g
concentration in plasma (Rat [16]): 900 ng/mL
concentration in plasma (Rat [17]): 9480 ng/mL
concentration in heart (Rat [18]): 119 ng/g
concentration in heart (Rat [19]): 116 ng/g
concentration in liver (Rat [20]): 2500 ng/g
concentration in plasma (Rat [21]): 3100 ng/mL
concentration in plasma (Rat [22]): 1240 ng/mL
concentration in thymus (Rat [23]): 6590 ng/g
concentration in plasma (Rat [24]): 17.2 ng/mL

O=C(O)C(Cl)Cl [dichloroacetic acid]
concentration in plasma (Rat [25]): 2260 ng/mL

Cc1cccc(Nc2cc(Cl)nc(SCC(=O)O)n2)c1C
concentration in plasma (Rat [26]; 2 h): 3450 ng/mL
concentration in plasma (Rat [26]; 6 h): 742 ng/mL
concentration in plasma (Rat [27]): 7290 ng/mL
concentration in plasma (Rat [28]): 5440 ng/mL
concentration in plasma (Rat [29]): 870 ng/mL
concentration in plasma (Rat [30]): 1200 ng/mL

O=C(O)CSCC(=O)O [Thiodiglycolic Acid]
concentration in liver (Rat [31]): 45300 ng/g
concentration in liver (Rat [32]): 7100 ng/g
concentration in heart (Rat [33]): 2020 ng/g
concentration in liver (Rat [34]): 176000 ng/g
concentration in heart (Rat [35]): 620 ng/g
concentration in thymus (Rat [36]): 3410 ng/g
concentration in heart (Rat [37]): 2320 ng/g
concentration in plasma (Rat [38]): 324 ng/mL
concentration in liver (Rat [39]): 162000 ng/g

CCCCOC(=O)c1ccccc1C(=O)O [Mono-n-butyl phthalate]
concentration in plasma (Rat [40]): 797 ng/mL
concentration in plasma (Rat [41]): 5350 ng/mL
